Structures are written as SMILES.

A word on the melting point: it is the temperature of the solid-liquid transition. Take `CCN(CC)C(=O)C(C)(C)Oc1ccc(-c2ccc(N3CCCCC3)cc2)cc1`: the melting point was in the range of 100 to 102 °C.
As to `CCCCCCCCCCCCCCCCCCSP(=S)(C1CCCCC1)C1CCCCC1`, the melting point lay in the range of 67 to 69 °C.
Molecule `CCOc1cccc(C)c1S(=O)(=O)NC(=O)c1noc(C)n1` registered a melting point of 168 °C.
For `COC(=NC(=O)c1ccc(F)cc1)N1Cc2ccccc2-c2ccccc2C1` the value was 136 to 138 °C.
For `COC(=O)C(C)Oc1ncn(-c2ccc(Cl)cc2Cl)n1` (stereo not given) the value was 74 to 75 °C.
Molecule `Clc1ccc(-c2cc3ccccc3s2)cc1` registered a melting point of 193 to 194 °C.
The figure for `CCn1cc(C(=O)O)c(=O)c2cc(F)c(N3CC4CCC3CN4)nc21` (stereo not given) is 250 to 253 °C; for `COc1ccc(C[C@@H]2COc3ccc(OCc4nc5cc(F)ccc5s4)cc3[C@@H]2O)cc1C(=O)O` (relative stereo) it is 149 to 151 °C.
The figure for `CC(C)(C)OC(=O)CCS(=O)(=O)c1ccc(Br)cc1` is 105 °C; for `COC(=O)CCCc1ccc(C(=O)CCCc2ccccc2)cc1` it is 61 to 62 °C; for `CN(C)c1ccc(NC(=O)Cn2c(-c3ccc(Br)cc3)nc3cccnc32)cc1` it is 248 to 250 °C.
For `CCOC(=O)Oc1cc2c(s1)CCN([C@H](C(=O)OC)c1ccccc1Cl)C2` the value was 42 to 44 °C; for `CCCCc1oc2ccccc2c1C(=O)NCc1ccc2c(Br)c(OCC#N)ccc2c1`, 154 to 157 °C.
Turning to `C(=C\c1nc(COc2ccc(CCCn3ccnc3)cc2)co1)/c1ccccc1`, the melting point is 127 to 128 °C.
The molecule `CC(=O)OC1COC(Oc2ccc(C(=S)c3ccc(C)cc3)cc2)C(OC(C)=O)C1OC(C)=O` (stereo not given) gave a melting point of 132 °C.
The figure for `CCCN(CCCNc1ncc(Cc2ccc(F)cc2)c(=O)[nH]1)c1ccccn1` is 107 to 109 °C; for `N[C@@H](Cc1ccc(C(F)(F)F)cc1)[C@H](O)c1ccc(F)c(F)c1` (racemic) it is 99 to 100 °C; for `O=C(COc1ccc(Cl)cc1Cl)OCNC(=O)Oc1cccc(Cl)c1` it is 110 °C.
Molecule `CN(Cc1ccc(CCn2cnc3cc(-c4ccc(Cl)cc4)sc3c2=O)cc1)C(=O)OC(C)(C)C` registered a melting point of 206 to 209 °C.
The molecule `O=C(O)Cc1sc(S)nc1-c1ccc(Cl)cc1` returned a melting point of 245 to 247 °C.
The figure for `CN(C)CCNC1=C(Br)C(=O)c2sc(C(=O)N3CCN(C(=O)C4CCCO4)CC3)nc2C1=O` (stereo not given) is 161 to 162 °C.
The figure for `CCn1cc(C(=O)OC)c(=O)cc1-c1ccc(N(C)C)c(C)c1` is 132 to 134 °C; for `CCOC(=O)c1ccc(NCCCc2ccccc2)cc1` it is 80 to 83 °C.
The figure for `Cc1cc(NC(=O)NC(=O)c2ccccc2N2CCOCC2)ccc1Oc1ncc(Br)cn1` is 67 to 70 °C; for `O=C(O)C=Cc1ccc(Oc2nsnc(Cl)c2=O)cc1` it is over 280 °C.
`Cc1cc(Cc2ccccc2)c(NC(=O)OCc2ccccc2)c(=O)n1CC(=O)O` had a melting point of 158 to 160 °C.
The molecule `Clc1ccc(-c2ccc3nncn3c2)cc1` displayed a melting point of 259 to 262 °C.
Molecule `CCOP(=O)(OCC)C(Nc1nccs1)P(=O)(OCC)OCC` came in with a melting point of 103 to 104 °C.
For `CC(C=CCC(C)(C)O)C1CCC2C3=CC=C4CC(O)CCC4(C)C3CCC21C` (stereo not given) the value was 198 to 200 °C.
The figure for `Cc1cc(C=NO)cc(Oc2nc(Cl)nc(Cl)c2C(C)C)c1` is 185 to 187 °C; for `COc1ccc(CN(C)CCCSc2ccc(NC(=O)c3cccc4c(=O)c5ccccc5[nH]c34)cc2)cc1OC` it is 140 °C; for `COC(OC)(c1ccncc1)C(NC(=O)NCCCc1ccccc1)c1ccc(F)cc1` (stereo not given) it is 162 to 166 °C.
In turn, `CC(C(=O)C(O)C1OC(n2cc(F)c(=O)[nH]c2=O)C(O)C1O)c1ccccc1` (mixture of isomers) had a melting point of 133 to 134 °C.
The figure for `O=c1ccc2cnc(Nc3ccccc3)nc2n1C1CCCC1` is 188 to 192 °C; for `O=C(NCCc1ccccc1)c1ccc(S(=O)(=O)Nc2ccccc2C(=O)O)cc1` it is 242 to 244 °C.
For `CC(C(=O)N(C)c1ccccc1)n1c(-c2ccc(Cl)cc2)nc2cccnc21` (stereo not given) the value was 174 to 177 °C; for `O=C(c1ccccc1Cl)c1c(O)nn(-c2c(Cl)cc(Cl)cc2Cl)c1N1C(=O)c2ccccc2C1=O`, 245 to 246 °C; for `CCCCOc1c(CO)n(CC(C)(C)C)c(=O)c2ccc(OCC)cc12`, 92.5 to 93 °C.
For `Nc1ccc(OCc2ccccc2)cc1N` the value was 184 °C; for `CCCCC(CC)CNC(=O)c1cc(C(C)(C)C)c(O)c(C(C)(C)C)c1` (stereo not given), 136 to 140 °C.
Molecule `Cc1nc(-c2ccccc2)nc(NCC(=O)N(C)c2ccccc2)c1Br` yielded a melting point of 160 to 162 °C.
The figure for `CC(C)C1Sc2ccccc2N(CC(=O)O)C1=S` (stereo not given) is 175 to 176 °C.
For `O=c1[nH]c(=O)n2c3c(cccc13)S(=O)(=O)c1ccc(C(F)(F)F)cc1-2` the value was 290 to 293 °C; for `COC(=O)c1ccccc1NC(=O)CN1CCN(C(=O)c2ccc(OC)c(OC)c2)CC1`, 168 to 169 °C.
The molecule `CCC1Cc2c(Br)cccc2C1O[Si](C)(C)C` (stereo not given) returned a melting point of 133 to 135 °C.
For `OCc1cn(Cc2ccc3cc(OCc4ccccc4)ccc3c2)cc1-c1ccccc1` the value was 116 to 117 °C; for `COC(=O)C1=CSCC1OC` (stereo not given), 79 to 81 °C.
For `CCCc1nc(N)c(C(=O)OCC)[nH]1` the value was 111 to 114 °C; for `N#Cc1cc(N)ccc1N1CCOCC1`, 147 to 148 °C.
For `CCOC(=O)c1ccc(OCCCCCCCCC#CCCCCOc2ccc(Cl)cc2)cc1` the value was 52 to 53 °C.
In turn, `CCOC(=O)c1cccc2[nH]c(=O)oc(=O)c12` came in with a melting point of 188 to 190 °C.
The figure for `CC(C)(CC(=O)O)C(Br)CC(Cl)(Cl)Cl` (stereo not given) is 123 to 124 °C; for `O=C(O)Cc1ccc(Oc2ccc([N+](=O)[O-])cc2)cc1` it is 132 to 136 °C; for `CCc1cn(C(CC)C(=O)N(C)C)nc1-c1ccccc1Cl` (stereo not given) it is 60 to 63 °C.
The figure for `COc1ccc(Nc2cc3c(cc2Nc2ccccc2)C(=O)NC3=O)cc1` is 266 to 267 °C; for `Nc1nc(NCCc2ccccc2)nc(-c2cc(Cl)ccc2Cl)n1` it is 217 to 218 °C.
For `CS(=O)(=O)Nc1ccc([N+](=O)[O-])cc1C=C1CCCCC1` the value was 174 to 175 °C.
As to `O=C(C=Cc1ccccc1)CC(=O)c1ccccc1`, the melting point is 108 °C.
In turn, `CCOC(=O)c1cnoc1-c1ccc(-c2ccccc2)cc1` gave a melting point of 73 to 75 °C.
The figure for `CC(C)N1CCC(n2cc(C3=C(c4cn(C)c5ccccc45)C(=O)NC3=O)c3ccccc32)CC1` is over 250 °C; for `C[C@@H](NS(=O)(=O)c1cccs1)c1cccc(C(=O)c2ccco2)c1` it is 105 to 106 °C; for `Clc1cc2c(cc1Cl)CCC(N1CCCC1)=C2` it is 141 to 142 °C.
As for `O=C(O)Cc1cccc2c(=O)cc(-c3cc(F)ccc3F)oc12`, the melting point was 222 to 224 °C.
For `O=C1Nc2ccccc2C(=NO)C1=O` the value was 241 to 242 °C; for `Cc1ncoc1C(C)(O)c1ccco1` (stereo not given), 73 to 75 °C; for `CN(C)S(=O)(=O)c1ccc(C(N)=O)c(C(F)(F)F)c1`, 149 to 156 °C.
`c1ccc(-c2nnc3cc(C45CCC(CC4)C5)c(OCc4ccccn4)nn23)cc1` displayed a melting point of 166 to 168 °C.
Molecule `CCCn1c(=O)c(N=O)c(N)n(CCc2ccc([N+](=O)[O-])cc2)c1=O` showed a melting point of 204 to 205 °C.
The figure for `CCNC(=O)c1c(Cl)cc(Cl)cc1[Si](C)(C)C` is 101 to 103 °C.
In turn, `C=C(Nc1nc(-c2ccccc2)c(-c2nc3ccccc3c(=O)n2-c2ccccc2C)s1)c1ccco1` had a melting point of 262 to 263 °C.
For `CCOC(=O)c1cc2cc(OCCOC)cc(NS(=O)(=O)c3cccs3)c2[nH]1` the value was 106 to 107 °C; for `CCOC(=O)CCCCOc1ccc(OC)c(OC)c1C=O`, 105 to 107 °C.
Molecule `CCOc1cccc(C2C(C(=O)OC)=C(C)NC(C)=C2C(=O)OC)c1OCC(=O)NCCO[N+](=O)[O-]` returned a melting point of 159 to 160 °C.
The figure for `CC(CO)CCCC(C)C1CC=C2C3=C(CCC21C)C1(C)CCC(O)C(C)(C)C1CC3` (stereo not given) is 180 to 181 °C; for `COc1ccc(CBr)c(CBr)c1` it is 48 to 50 °C; for `COc1nc(C)c(C(C)O)cc1NC(=O)N1CCN(c2cc(C)cc(C)c2)CC1` (stereo not given) it is 153 to 154 °C.
The molecule `O=[N+]([O-])c1c(NCCCO)cc(NCCCO)cc1NCCCO` returned a melting point of 150 °C.
The figure for `[N-]=[N+]=NCc1cc(Cl)c(C(=O)c2ccc(Cl)cc2)c(Cl)c1` is 50 to 55 °C; for `COc1cccc(-n2c(N3CCNCC3)c(C(=O)N3CCN(C)CC3)c3ccccc32)c1` it is 228 to 230 °C; for `NS(=O)(=O)c1ccc(-n2nc(C(F)(F)F)cc2OS(=O)(=O)C(F)(F)F)cc1` it is 114 to 115 °C.
In turn, `CNS(=O)(=O)c1cc(S(=O)(=O)NC)c(C(Cl)=C(Cl)Cl)cc1N` returned a melting point of 211 to 212 °C.
The figure for `O=C(Oc1ccccc1Br)c1cc(I)c[nH]1` is 126 to 127 °C.
The figure for `C=C(C)Cc1cc2c(cc1O)CC(=O)N2CC` is 118 to 120 °C.
For `OCc1cc2c(cn1)[nH]c1ccccc12` the value was 228 to 230 °C.
Molecule `Oc1ccc(N2CCN(c3nccs3)CC2)cc1` displayed a melting point of 170 °C.
`CCc1nc2cc(Cn3ccnc3)ccc2n1C` displayed a melting point of 127 °C.
The figure for `Nc1nc(/C(=N/OCC(=O)N2CCCCCC2)C(=O)O)cs1` is 178 to 179 °C.
In turn, `COC(=O)CCC(=O)N(O)c1cccc(OCc2nc3ccccc3s2)c1` showed a melting point of 123 to 125 °C.
The figure for `CNC1=NS(=O)N=C1CCS` (stereo not given) is 191 to 193 °C.
The figure for `O=c1cc(-c2ccc(O)cc2)oc2ccc(CO)cc12` is 246 to 247 °C.

Source of the values: a melting point compilation (Tetko et al.; mined from patent text by program, amines drawn as free bases though some values may be those of a salt).
